# Results published in patent US8697867B2, “Cross-linked cyclic amine compounds and agents for pest control” (Nippon Soda Co., Ltd., priority 2005, dated 2014).
# Key:
# Tetranychus urticae = test: Effectiveness against Tetranychus urticae (adulticidal rate on common bean leaf); type: in vivo; settings: 125 ppm wettable powder dilution; adult females resistant to organophosphorus pesticides; 3 days after application; 25° C., 65% humidity
# Panonychus citri = test: Effectiveness against Panonychus citri (mandarin orange leaf in petri dish); type: in vivo; settings: 125 ppm emulsion dilution; adults removed 3 days after application; examined on the 11th day; 25° C., 65% humidity
# Description: 10 adult female Panonychus citri were inoculated on the leaf of a mandarin orange, which was placed in a petri dish. After the inoculation, the drug solution, which was prepared by following the method of the emulsion shown in Example 2 of the drugs and by diluting with water to achieve the compound concentration of 125 ppm, was applied using a rotary spreading tower. The dish was placed in a temperature-controlled room where the temperature and humidity were set to 25° C. and 65% respectively, adults were removed 3 days after the application, and whether eggs laid during these 3 days could grow to become adults was examined on the 11th day.
Structure (SMILES),insecticidal rate (adulticidal rate) (Tetranychus urticae),insecticidal rate (whether eggs laid during 3 days could grow to adults) (Panonychus citri)
"FC(F)(F)c1ccc(OC2CC3CCC(C2)N3c2ccc(C(F)(F)F)cn2)nc1 (stereo not drawn) [Compound 2-3, 3α-(5-trifluoromethyl-2-pyridyloxy)-8-(5-trifluoromethyl-pyridin-2-yl)-8-azabicyclo[3.2.1]octane]",100%,–
"CCCOc1cc(C(F)(F)F)ccc1OC1CC2CCC(C1)N2c1ccc(C(F)(F)F)c(F)c1 (stereo not drawn) [Compound 4-70, 3α-[2-n-propoxy-4-(trifluoromethyl)phenoxy]-8-[3-fluoro-4-(trifluoromethyl)phenyl]-8-azabicyclo[3.2.1]octane]",100%,100%
